Patent publication US4471131A, “Novel silyl esters of N-phosphonomethylglycine” (Monsanto Company, priority 1983, dated 1984)

Key:
Test in all cases: post-emergence herbicidal activity, greenhouse
Type in all cases: in vivo
[1] = test system: Hemp Sesbania; conditions: Table III, 2 WAT
Description: (§1) A good grade of top soil is placed in aluminum pans having holes in the bottom and compacted to a depth of 0.95 to 1.27 cm. from the top of the pan. A predetermined number of seeds of each of several dicotyledonous and moncotyledonous annual plant species and/or vegetative propagules for the perennial plant species were placed on the soil and pressed into the soil surface. The seeds and/or vegetative propagules are covered with soil and leveled. The pans are then placed on a sand bench in the greenhouse and watered from below as needed. After the plants reach the desired age (two to three weeks), each pan, except for the control pans, is removed individually to a spraying chamber and sprayed by means of an atomizer at the rates noted. In the spray solution is an amount of an emulsifying agent mixture to give a spray solution or suspension which contains about 0.4% by weight of the emulsifier. The spray solution or suspension contains a sufficient amount of the candidate chemical in order to give application rates corresponding to those set forth in the tables. The pans were returned to the greenhouse and watered as before and the injury to the plants as compared to the control is observed at approximately two and four weeks and the results recorded. In the tables, WAT means "weeks after treatment."
(§2) The post-emergent herbicidal activity index used in Tables II and III is as follows:
(§3) The plant species utilized in these tests are identified by letter in accordance with the following legend: […]

[2] = test system: Wild Buckwheat; conditions: Table III, 2 WAT
Description: as §1, §2, §3

[3] = test system: Common Lambsquarters
Description: as §1, §2, §3

[4] = test system: Large Crabgrass; conditions: Table III, 2 WAT
Description: as §1, §2, §3

[5] = test system: Yellow Nutsedge; conditions: Table II, formulated immediately prior to treatment
Description: as §1, §2, §3

[6] = test system: Pennsylvania Smartweed
Description: as §1, §2, §3

[7] = test system: Sugar Beet; conditions: Table III, 2 WAT
Description: as §1, §2, §3

[8] = test system: Velvetleaf
Description: as §1, §2, §3

[9] = test system: Morningglory
Description: as §1, §2, §3

[10] = test system: Panicum Spp; conditions: Table III, 2 WAT
Description: as §1, §2, §3

[11] = test system: Barnyardgrass
Description: as §1, §2, §3

[12] = test system: Downy Brome
Description: as §1, §2, §3

[13] = test system: Soybean; conditions: Table III, 2 WAT
Description: as §1, §2, §3

[14] = test system: Canada Thistle; conditions: Table II, formulated immediately prior to treatment
Description: as §1, §2, §3

[15] = test system: Quackgrass; conditions: Table II, formulated immediately prior to treatment
Description: as §1, §2, §3

[16] = test system: Cocklebur
Description: as §1, §2, §3

[17] = test system: Rice; conditions: Table III, 2 WAT
Description: as §1, §2, §3

[18] = test system: Johnsongrass; conditions: Table II, formulated immediately prior to treatment
Description: as §1, §2, §3

[19] = Table II, 2 WAT, 5.6 kg/h, formulated immediately prior to treatment
[20] = Table II, 2 WAT, 11.2 kg/h, formulated immediately prior to treatment
[21] = Table II, 4 WAT, 5.6 kg/h, formulated immediately prior to treatment
[22] = Table II, 4 WAT, 11.2 kg/h, formulated immediately prior to treatment

SMILES: CC(C)OC(=O)CNCP(=O)(O)O[Si](c1ccccc1)(c1ccccc1)C(C)(C)C [Ex. 2, Glycine, N((([(1,1-Dimethylethyl)Diphenylsilyl]oxy)-Hydroxyphosphinyl)-, methyl)-, 1-Methylethyl Ester]
- Plant Response Index (R) ([1]; 1.1 kg/h): 0 (0-24% inhibition)
- Plant Response Index (R) ([1]; 5.6 kg/h): 3 (75-99% inhibition)
- Plant Response Index (Q) ([2]; 1.1 kg/h): 0 (0-24% inhibition)
- Plant Response Index (Q) ([2]; 5.6 kg/h): 3 (75-99% inhibition)
- Plant Response Index (E) [3, 19]: 3 (75-99% inhibition)
- Plant Response Index (E) [3, 20]: 3 (75-99% inhibition)
- Plant Response Index (E) [3, 21]: 2 (50-74% inhibition)
- Plant Response Index (E) [3, 22]: 3 (75-99% inhibition)
- Plant Response Index (E) ([3]; Table III, 2 WAT, 1.1 kg/h): 3 (75-99% inhibition)
- Plant Response Index (E) ([3]; Table III, 2 WAT, 5.6 kg/h): 3 (75-99% inhibition)
- Plant Response Index (T) ([4]; 1.1 kg/h): 2 (50-74% inhibition)
- Plant Response Index (T) ([4]; 5.6 kg/h): 3 (75-99% inhibition)
- Plant Response Index (G) ([5]; 2 WAT, 5.6 kg/h): 2 (50-74% inhibition)
- Plant Response Index (G) ([5]; 2 WAT, 11.2 kg/h): 2 (50-74% inhibition)
- Plant Response Index (G) ([5]; 4 WAT, 5.6 kg/h): 3 (75-99% inhibition)
- Plant Response Index (G) ([5]; 4 WAT, 11.2 kg/h): 2 (50-74% inhibition)
- Plant Response Index (F) [6, 19]: 3 (75-99% inhibition)
- Plant Response Index (F) [6, 20]: 4 (100% inhibition)
- Plant Response Index (F) [6, 21]: 4 (100% inhibition)
- Plant Response Index (F) [6, 22]: 4 (100% inhibition)
- Plant Response Index (F) ([6]; Table III, 2 WAT, 1.1 kg/h): 3 (75-99% inhibition)
- Plant Response Index (F) ([6]; Table III, 2 WAT, 5.6 kg/h): 3 (75-99% inhibition)
- Plant Response Index (M) ([7]; 1.1 kg/h): 0 (0-24% inhibition)
- Plant Response Index (M) ([7]; 5.6 kg/h): 2 (50-74% inhibition)
- Plant Response Index (C) [8, 19]: 2 (50-74% inhibition)
- Plant Response Index (C) [8, 20]: 3 (75-99% inhibition)
- Plant Response Index (C) [8, 21]: 2 (50-74% inhibition)
- Plant Response Index (C) [8, 22]: 3 (75-99% inhibition)
- Plant Response Index (C) ([8]; Table III, 2 WAT, 1.1 kg/h): 0 (0-24% inhibition)
- Plant Response Index (C) ([8]; Table III, 2 WAT, 5.6 kg/h): 3 (75-99% inhibition)
- Plant Response Index (D) [9, 19]: 2 (50-74% inhibition)
- Plant Response Index (D) [9, 20]: 3 (75-99% inhibition)
- Plant Response Index (D) [9, 21]: 2 (50-74% inhibition)
- Plant Response Index (D) [9, 22]: 3 (75-99% inhibition)
- Plant Response Index (D) ([9]; Table III, 2 WAT, 1.1 kg/h): 0 (0-24% inhibition)
- Plant Response Index (D) ([9]; Table III, 2 WAT, 5.6 kg/h): 3 (75-99% inhibition)
- Plant Response Index (S) ([10]; 1.1 kg/h): 0 (0-24% inhibition)
- Plant Response Index (S) ([10]; 5.6 kg/h): 3 (75-99% inhibition)
- Plant Response Index (K) [11, 19]: 3 (75-99% inhibition)
- Plant Response Index (K) [11, 20]: 3 (75-99% inhibition)
- Plant Response Index (K) [11, 21]: 3 (75-99% inhibition)
- Plant Response Index (K) [11, 22]: 3 (75-99% inhibition)
- Plant Response Index (K) ([11]; Table III, 2 WAT, 1.1 kg/h): 1 (25-49% inhibition)
- Plant Response Index (K) ([11]; Table III, 2 WAT, 5.6 kg/h): 3 (75-99% inhibition)
- Plant Response Index (J) [12, 19]: 2 (50-74% inhibition)
- Plant Response Index (J) [12, 20]: 3 (75-99% inhibition)
- Plant Response Index (J) [12, 21]: 2 (50-74% inhibition)
- Plant Response Index (J) [12, 22]: 3 (75-99% inhibition)
- Plant Response Index (J) ([12]; Table III, 2 WAT, 1.1 kg/h): 0 (0-24% inhibition)
- Plant Response Index (J) ([12]; Table III, 2 WAT, 5.6 kg/h): 3 (75-99% inhibition)
- Plant Response Index (L) ([13]; 1.1 kg/h): 0 (0-24% inhibition)
- Plant Response Index (L) ([13]; 5.6 kg/h): 2 (50-74% inhibition)
- Plant Response Index (A) ([14]; 2 WAT, 5.6 kg/h): 3 (75-99% inhibition)
- Plant Response Index (A) ([14]; 2 WAT, 11.2 kg/h): 1 (25-49% inhibition)
- Plant Response Index (A) ([14]; 4 WAT, 5.6 kg/h): 3 (75-99% inhibition)
- Plant Response Index (A) ([14]; 4 WAT, 11.2 kg/h): 1 (25-49% inhibition)
- Plant Response Index (H) ([15]; 2 WAT, 5.6 kg/h): 3 (75-99% inhibition)
- Plant Response Index (H) ([15]; 2 WAT, 11.2 kg/h): 3 (75-99% inhibition)
- Plant Response Index (H) ([15]; 4 WAT, 5.6 kg/h): 3 (75-99% inhibition)
- Plant Response Index (H) ([15]; 4 WAT, 11.2 kg/h): 4 (100% inhibition)
- Plant Response Index (B) [16, 19]: 2 (50-74% inhibition)
- Plant Response Index (B) [16, 20]: 3 (75-99% inhibition)
- Plant Response Index (B) [16, 21]: 2 (50-74% inhibition)
- Plant Response Index (B) [16, 22]: 3 (75-99% inhibition)
- Plant Response Index (B) ([16]; Table III, 2 WAT, 1.1 kg/h): 0 (0-24% inhibition)
- Plant Response Index (B) ([16]; Table III, 2 WAT, 5.6 kg/h): 3 (75-99% inhibition)
- Plant Response Index (O) ([17]; 1.1 kg/h): 0 (0-24% inhibition)
- Plant Response Index (O) ([17]; 5.6 kg/h): 3 (75-99% inhibition)
- Plant Response Index (I) ([18]; 2 WAT, 5.6 kg/h): 3 (75-99% inhibition)
- Plant Response Index (I) ([18]; 2 WAT, 11.2 kg/h): 3 (75-99% inhibition)
- Plant Response Index (I) ([18]; 4 WAT, 5.6 kg/h): 3 (75-99% inhibition)
- Plant Response Index (I) ([18]; 4 WAT, 11.2 kg/h): 3 (75-99% inhibition)
